# From patent US20210353624A1, “METHOD OF TREATING CANCER WITH TELOTRISAT OR A PRODRUG THEREOF” (TerSera Therapeutics LLC, priority 2020, published 2021)
# Tested on: u5-HIAA
# Assay: Biomarker changes after TE initiation (TELEACE): u5-HIAA
# Type: in vivo, human
# Details: n=22
# Method: This example provides the effects of telotristat ethyl treatment on selected patient biomarkers (i.e., u5-HIAA; CgA; 5-HT; and NT-proBNP) in the retrospective, single arm study of Example 4.
# The average (SD) duration of documented TE treatment was 12.0 (7.3) months with a median (IQR) of 9.0 (6.8, 15.2) months. In many cases, a patient received a TE dosage of 250 mg three times per day.
# The continuous measures of biomarker values pre- and post-TE initiation were described using mean, SD, median, and IQR. The biomarkers were assessed only among patients with complete biomarker assessment results in both pre-TE and post-TE initiation periods. A Wilcoxon signed rank test was used to calculate P-values for the mean change in biomarker value.
# Patients with reported biomarker values below, at, or above normal range in pre-TE and post-TE initiation periods were described using proportions and frequencies. The biomarkers were assessed only among patients with complete biomarker assessment results in both pre-TE and post-TE initiation periods. McNemar's test was used to calculate P-values for the differences in paired proportions of patients with values above the upper limit of normal.
# To evaluate the relationship between the change in biomarker values (i.e., u5-HIAA; CgA; 5-HT) and the change in tumor progression between the pre- and post-TE periods, Pearson's correlation coefficient was used to assess the correlation between biomarker assessments and tumor sizes and to derive the associated P-values. The correlations were assessed only among patients with complete biomarker assessment results in both pre-TE and post-TE initiation periods. The relationship between biomarker values and tumor sizes during pre-TE and post-TE initiation period was presented using scatterplots.
# For the biomarker results below, the pre-TE initiation period is defined as 12 months before the index date (initiation of TE). The assessment closest to the index date during the pre-TE period was reported for each biomarker.
# The post-TE initiation period is defined as a period from index date to the earlier of end of treatment with TE or date of chart abstraction. The assessment closest to the date of chart abstraction during the post-TE period was reported for each biomarker.
# The data includes patients with reported biomarker values, units, and laboratory ranges during pre- and post-TE initiation periods. It excludes patients who had different biomarker units or laboratory ranges reported pre- and post-TE initiation.
# The normal range was defined by reported laboratory lower limit of normal and upper limit of normal.
# The values in Table 5-1 have been converted to mg/24 hours based on the following conversion rate: […]. The Wilcoxon signed rank test was used to calculate P-values for the mean change in biomarker values pre- and post-TE initiation.
# Table 5-4 is based on patients who had complete biomarker assessment results (u5-HIAA: N=22; 5-HT: N=22) in both pre-TE and post-TE initiation periods. Correlation analysis was not conducted for CgA and NT-proBNP due to small sample sizes for CgA (n=15) and NT-proBNP (n=2). Pearson's correlation coefficient was used to assess the correlation between biomarker assessments and tumor sizes and to derive the associated P-values. Values have been converted to mg/24 hours based on the following conversion rate: […].
structure (smiles),measurement,setting,value
"CCOC(=O)[C@@H](N)Cc1ccc(-c2cc(O[C@H](c3ccc(Cl)cc3-n3ccc(C)n3)C(F)(F)F)nc(N)n2)cc1 [telotristat ethyl, (S)-ethyl 2-amino-3-(4-(2-amino-6-((R)-1-(4-chloro-2-(3-methyl-1H-pyrazol-1-yl)phenyl)-2,2,2-trifluoroethoxy)pyrimidin-4-yl)phenyl)propanoate]","u5-HIAA Below normal range Post-TE, n (%)",pre-TE 0 (0),0 (0) n (%)
same,"u5-HIAA At normal range Post-TE, n (%)",pre-TE 1 (4.5),2 (9.1) n (%)
same,"u5-HIAA Above normal range Post-TE, n (%)","pre-TE 21 (95.5), P=0.317",20 (90.9) n (%)
same,"u5-HIAA Measurement (mg/24 hours) Post-TE Initiation, Median (IQR)","pre-TE 42.0 (25.0, 65.0)","25.0 (16.0, 44.0) mg/24 hours"
same,"u5-HIAA Measurement (mg/24 hours) Post-TE Initiation, Mean ± SD","pre-TE 72.5 ± 98.0, P<0.001",43.6 ± 54.7 mg/24 hours
